# Experimental data published in patent US20240317777A1, “NOVEL MACROCYCLIC AMINOPYRAZOLE COMPOUNDS AS CDK2 INHIBITORS” (Accutar Biotechnology Inc., priority 2023, published 2024).
# Where two headings read alike, the source gives them in different places.
# How the values were obtained:
# [1] = test system: CCNE1-normal SKOV3 cells; experiment: Cell growth inhibition of CCNE1-normal SKOV3 cells (CellTiter-Glo); assay type: cell-based; conditions: Homo sapiens, SK-OV-3, 144 h, 6 days
# Outline: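 Growth was measured by CellTiter-Glo luminescence after 6 days' compound exposure at 37 °C. Cells were plated one day before dosing at 1000 per well in medium with 10% FBS, and compounds were diluted from DMSO stocks.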
# [2] = test system: Phospho-Rb (Ser807/811) in OVCAR3 cells; experiment: Phospho-Rb expression inhibition in OVCAR3 cells quantified by In Cell Western; assay type: cell-based; conditions: Homo sapiens, OVCAR-3, 24 hours, read-out: OVCAR-3 pRb IC50
# Outline: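 In-cell western: after 24 h compound exposure at 37° C, fixed OVCAR3 cells co-stained for pRb Ser807/811 (800 nm channel) and total Rb (680 nm channel), imaged by LI-COR Odyssey.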
# [3] = biological target: CDK1-CYCLIN B (Homo sapiens, UniProt P06493); experiment: CDK protein kinase inhibition by ADP-Glo assay, CDK1-CYCLIN B; assay type: biochemical; conditions: for IC50: ADP-Glo, 1000 μM ATP, read-out: CDK1-CYCLINB, IC50; for CDK2 fold selectivity over CDK1 / CDK2 Fold selectivity, CDK1: CDK2 versus CDK1; for CDK2 fold selectivity over CDK1: Table 8
# Protocol: (§1) CDK Protein Kinase Inhibition by ADP-Glo Assay
# (§2) This ADP-Glo assay measures ADP formed from a kinase reaction and indirectly quantifies the phosphorylation of peptide substrates by the CDK/cyclin protein complexes. The typical assays were carried out in Nanosyn by combining kinase/cyclin complexes, substrates, compounds, and cofactors (ATP and Mg2+) in a well of a 384-well microtiter plate (Corning 3824) and incubating at 22° C. (Table 1). At the end of the incubation, the reaction is quenched, and conversion is detected by luminescence using the Promega ADP-Glo™ Kinase Assay kit (catalog #V9102).
# (§3) Final assay buffer mixture contains: • 100 mM HEPES, pH 7.5 • 0.1% BSA • 0.01% Triton X-100 • 1 mM DTT • 5 mM MgCl2 • 10 μM Sodium Orthovanadate • 100 μM Beta-Glycerophosphate • 1000 μM Ultra Pure ATP (provided in the Promega ADP-Glo™ Kinase Assay kit) • 1% DMSO (from compound)
# (§4) Upon completion, 5 μL of the ADP Glo reagent was added to each well and the plate was further incubated at room temperature for 45 minutes. 10 uL of the Kinase Detection Reagent was subsequently added to each well. After 10 minutes of incubation, the plate was read and analyzed on the BioTek Synergy microplate reader using BioTek Gen5 software.
# [4] = biological target: CDK9-CYCLIN T1 (Homo sapiens, UniProt P50750); experiment: CDK protein kinase inhibition by ADP-Glo assay, CDK9-CYCLIN T1; assay type: biochemical; conditions: for IC50: ADP-Glo, 1000 μM ATP, read-out: CDK9-CYCLINT1, IC50; for CDK2 Fold Sensitivity, CDK9 / CDK2 Fold selectivity, CDK9: CDK2 versus CDK9; for CDK2 Fold Sensitivity, CDK9: Table 8
# Protocol: as §1, §2, §3, §4
# [5] = biological target: CDK2-CYCLIN E1 (Homo sapiens, UniProt P24941); experiment: CDK protein kinase inhibition by ADP-Glo assay, CDK2-CYCLIN E1; assay type: biochemical; conditions: ADP-Glo, 1000 μM ATP, read-out: CDK2-CYCLINE, IC50
# Protocol: as §1, §2, §3, §4
# [6] = test system: CCNE1-amplified OVCAR3 cells; experiment: Cell growth inhibition of CCNE1-amplified OVCAR3 cells (CellTiter-Glo); assay type: cell-based; conditions: Homo sapiens, OVCAR-3, 144 h, 6 days
# Outline: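 Growth read-out was CellTiter-Glo luminescence, taken after 10 min at room temperature at the end of a 6-day compound exposure at 37 °C. Compounds were diluted from DMSO stocks across various concentrations.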
# [7] = biological target: CDK4-CYCLIN D1 (Homo sapiens, UniProt P11802); experiment: CDK protein kinase inhibition by ADP-Glo assay, CDK4-CYCLIN D1; assay type: biochemical; conditions: for IC50: ADP-Glo, 1000 μM ATP, read-out: CDK4-CYCLIND1, IC50; for CDK2 Fold Sensitivity, CDK4 / CDK2 Fold selectivity, CDK4: CDK2 versus CDK4; for CDK2 Fold Sensitivity, CDK4: Table 8
# Protocol: as §1, §2, §3, §4
# [8] = biological target: CDK6-CYCLIN D3 (Homo sapiens, UniProt Q00534); experiment: CDK protein kinase inhibition by ADP-Glo assay, CDK6-CYCLIN D3; assay type: biochemical; conditions: for IC50: ADP-Glo, 1000 μM ATP, read-out: CDK6-CYCLIND3, IC50; for CDK2 Fold Sensitivity, CDK6 / CDK2 Fold selectivity, CDK6: CDK2 versus CDK6; for CDK2 Fold Sensitivity, CDK6: Table 8
# Protocol: as §1, §2, §3, §4
# Sequence of CDK9-CYCLIN T1 (P50750 whole entry): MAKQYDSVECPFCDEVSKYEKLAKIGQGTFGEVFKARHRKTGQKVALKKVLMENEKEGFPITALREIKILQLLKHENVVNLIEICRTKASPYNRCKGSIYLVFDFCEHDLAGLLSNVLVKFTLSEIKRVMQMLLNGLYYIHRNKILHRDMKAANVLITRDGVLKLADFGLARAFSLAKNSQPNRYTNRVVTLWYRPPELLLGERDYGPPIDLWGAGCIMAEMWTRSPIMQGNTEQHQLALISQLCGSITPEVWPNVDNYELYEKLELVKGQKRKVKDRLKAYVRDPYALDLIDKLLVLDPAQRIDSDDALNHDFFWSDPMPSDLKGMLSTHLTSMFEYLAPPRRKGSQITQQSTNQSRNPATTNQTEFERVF
# Sequence of CDK9-CYCLIN T1 (O60563 whole entry partner): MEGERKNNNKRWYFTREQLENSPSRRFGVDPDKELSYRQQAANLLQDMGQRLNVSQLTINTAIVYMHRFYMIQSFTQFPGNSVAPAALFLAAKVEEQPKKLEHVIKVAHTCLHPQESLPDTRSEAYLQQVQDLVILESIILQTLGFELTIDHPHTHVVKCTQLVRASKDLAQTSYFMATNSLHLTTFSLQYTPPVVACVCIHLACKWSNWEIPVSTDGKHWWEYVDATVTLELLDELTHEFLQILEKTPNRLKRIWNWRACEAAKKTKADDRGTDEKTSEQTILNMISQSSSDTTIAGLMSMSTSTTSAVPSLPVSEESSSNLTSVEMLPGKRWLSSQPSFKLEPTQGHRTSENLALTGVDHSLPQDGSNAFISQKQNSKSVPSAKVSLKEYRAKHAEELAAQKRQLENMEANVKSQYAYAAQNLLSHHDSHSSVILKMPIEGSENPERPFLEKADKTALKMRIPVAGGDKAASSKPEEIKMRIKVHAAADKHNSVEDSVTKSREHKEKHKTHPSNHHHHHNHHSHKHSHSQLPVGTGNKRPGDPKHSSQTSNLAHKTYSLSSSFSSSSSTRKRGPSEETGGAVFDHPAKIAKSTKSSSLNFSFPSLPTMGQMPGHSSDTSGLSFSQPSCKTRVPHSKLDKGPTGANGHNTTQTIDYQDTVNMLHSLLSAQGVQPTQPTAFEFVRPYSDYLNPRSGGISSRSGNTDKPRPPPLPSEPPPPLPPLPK
# Sequence of CDK1-CYCLIN B (P06493 whole entry): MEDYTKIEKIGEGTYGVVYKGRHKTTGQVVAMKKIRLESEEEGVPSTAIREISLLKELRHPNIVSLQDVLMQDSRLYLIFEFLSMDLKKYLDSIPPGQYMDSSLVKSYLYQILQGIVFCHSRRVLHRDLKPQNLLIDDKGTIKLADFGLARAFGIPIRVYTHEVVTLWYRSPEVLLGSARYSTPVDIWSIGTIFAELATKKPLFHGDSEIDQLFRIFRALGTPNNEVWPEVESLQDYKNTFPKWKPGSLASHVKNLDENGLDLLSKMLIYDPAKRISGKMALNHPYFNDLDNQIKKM
# Sequence of CDK1-CYCLIN B (P14635 whole entry partner): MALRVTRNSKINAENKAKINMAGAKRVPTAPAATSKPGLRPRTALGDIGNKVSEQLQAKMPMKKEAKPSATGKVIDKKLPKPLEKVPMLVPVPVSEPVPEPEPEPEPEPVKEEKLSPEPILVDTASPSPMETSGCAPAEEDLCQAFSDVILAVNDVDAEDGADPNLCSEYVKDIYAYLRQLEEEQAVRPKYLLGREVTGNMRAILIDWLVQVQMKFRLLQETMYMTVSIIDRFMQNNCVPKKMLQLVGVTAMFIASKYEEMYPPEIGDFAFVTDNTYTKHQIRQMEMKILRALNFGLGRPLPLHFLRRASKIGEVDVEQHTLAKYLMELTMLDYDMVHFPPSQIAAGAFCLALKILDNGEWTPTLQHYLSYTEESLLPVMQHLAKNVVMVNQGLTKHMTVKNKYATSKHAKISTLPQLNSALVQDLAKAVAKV
# Sequence of CDK4-CYCLIN D1 (P11802 whole entry): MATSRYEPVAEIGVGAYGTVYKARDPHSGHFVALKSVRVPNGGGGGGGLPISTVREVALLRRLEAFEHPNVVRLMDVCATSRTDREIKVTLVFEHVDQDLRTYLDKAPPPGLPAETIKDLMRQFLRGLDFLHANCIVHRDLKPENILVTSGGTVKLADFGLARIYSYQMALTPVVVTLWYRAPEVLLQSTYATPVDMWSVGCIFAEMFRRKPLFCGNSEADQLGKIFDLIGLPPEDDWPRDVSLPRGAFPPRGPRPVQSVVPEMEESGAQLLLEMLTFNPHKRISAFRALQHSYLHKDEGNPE
# Sequence of CDK4-CYCLIN D1 (P24385 whole entry partner): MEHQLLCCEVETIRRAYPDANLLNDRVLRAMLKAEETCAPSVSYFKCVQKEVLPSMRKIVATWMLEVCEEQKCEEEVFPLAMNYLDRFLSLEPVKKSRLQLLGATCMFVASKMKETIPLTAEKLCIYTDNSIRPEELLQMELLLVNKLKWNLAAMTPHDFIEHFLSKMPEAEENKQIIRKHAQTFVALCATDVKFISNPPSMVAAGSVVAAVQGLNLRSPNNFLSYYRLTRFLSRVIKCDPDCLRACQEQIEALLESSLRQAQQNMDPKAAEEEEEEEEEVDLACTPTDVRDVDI
# Sequence of CDK6-CYCLIN D3 (Q00534 whole entry): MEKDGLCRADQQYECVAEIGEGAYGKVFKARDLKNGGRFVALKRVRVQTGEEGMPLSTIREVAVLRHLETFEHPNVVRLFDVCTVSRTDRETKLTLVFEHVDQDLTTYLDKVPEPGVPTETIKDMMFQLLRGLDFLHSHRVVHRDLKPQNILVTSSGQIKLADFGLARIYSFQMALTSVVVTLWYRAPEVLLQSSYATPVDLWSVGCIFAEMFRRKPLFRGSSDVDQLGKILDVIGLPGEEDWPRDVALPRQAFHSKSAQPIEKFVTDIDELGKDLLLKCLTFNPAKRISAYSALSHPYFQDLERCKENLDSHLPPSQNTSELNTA
# Sequence of CDK6-CYCLIN D3 (P30281 whole entry partner): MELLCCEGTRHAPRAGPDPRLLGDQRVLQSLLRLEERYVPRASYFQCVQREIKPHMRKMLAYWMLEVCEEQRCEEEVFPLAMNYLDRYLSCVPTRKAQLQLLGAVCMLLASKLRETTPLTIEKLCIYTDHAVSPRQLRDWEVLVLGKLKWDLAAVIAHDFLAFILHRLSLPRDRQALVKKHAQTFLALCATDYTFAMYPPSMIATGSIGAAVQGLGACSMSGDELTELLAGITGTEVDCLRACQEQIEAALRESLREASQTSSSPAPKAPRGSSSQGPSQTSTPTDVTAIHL
Structure (SMILES),IC50 [1] [nM],IC50 [2] [nM],IC50 ([3]; Table 7) [nM],CDK2 fold selectivity over CDK1 [3],IC50 ([4]; Table 7) [nM],"CDK2 Fold Sensitivity, CDK9 [4]",IC50 ([5]; Table 7) [nM],IC50 [6] [nM],IC50 ([7]; Table 7) [nM],"CDK2 Fold Sensitivity, CDK4 [7]",IC50 ([8]; Table 7) [nM],"CDK2 Fold Sensitivity, CDK6 [8]",other results
"C[C@H]1CCCOc2cc(ccn2)Nc2cc([nH]n2)[C@H]2CC[C@H](C2)OC(=O)N1 [Compound 9, (1^1S,1^3R,9S,Z)-9-methyl-2^1H-5,12-dioxa-3,10-diaza-4(4,2)-pyridina-2(3,5)-pyrazola-1(1,3)-cyclopentanacyclododecaphan-11-one]",> 1250,10 to 50,100 to 500,"C (C, >50 and ≤100)",> 500,"B (B, >100 and ≤500)",≤ 10,10 to 50,> 500,"B (B, >100 and ≤500)",> 500,"B (B, >100 and ≤500)","IC50 ([3]; Table 29): 100 to 500 nM; CDK2 Fold selectivity, CDK1 ([3]; Table 30): E (E, <20); IC50 ([4]; Table 29): > 500 nM; CDK2 Fold selectivity, CDK9 ([4]; Table 30): C (C, >50 and ≤100); IC50 ([5]; Table 29): 10 to 50 nM; IC50 ([7]; Table 29): > 500 nM; CDK2 Fold selectivity, CDK4 ([7]; Table 30): C (C, >50 and ≤100); IC50 ([8]; Table 29): > 500 nM; CDK2 Fold selectivity, CDK6 ([8]; Table 30): C (C, >50 and ≤100)"
"C[C@@H]1CCCOc2cc(ccn2)Nc2cc([nH]n2)[C@H]2CC[C@H](C2)OC(=O)N1 [Compound 10, (1^1S,1^3R,9R,Z)-9-methyl-2^1H-5,12-dioxa-3,10-diaza-4(4,2)-pyridina-2(3,5)-pyrazola-1(1,3)-cyclopentanacyclododecaphan-11-one]",> 1250,10 to 50,100 to 500,"D (D, >20 and ≤50)",> 500,"B (B, >100 and ≤500)",≤ 10,50 to 250,100 to 500,"C (C, >50 and ≤100)",100 to 500,"C (C, >50 and ≤100)",–
"CC1(C)CCCOc2cc(ccn2)Nc2cc([nH]n2)[C@H]2CC[C@H](C2)OC(=O)N1 [Compound 13, (1^1S,1^3R,Z)-9,9-dimethyl-2^1H-5,12-dioxa-3,10-diaza-4(4,2)-pyridina-2(3,5)-pyrazola-1(1,3)-cyclopentanacyclododecaphan-11-one]",250 to 1250,2 to 10,10 to 50,"E (E, <20)",50 to 100,"C (C, >50 and ≤100)",≤ 10,2 to 10,50 to 100,"C (C, >50 and ≤100)",50 to 100,"D (D, >20 and ≤50)",–
"O=C1NCCCCOc2cc(cc(C(F)F)n2)Nc2cc([nH]n2)[C@H]2CC[C@H](C2)O1 [Compound 16, (1^1S,1^3R,Z)-46-(difluoromethyl)-2^1H-5,12-dioxa-3,10-diaza-4(4,2)-pyridina-2(5,3)-pyrazola-1(1,3)-cyclopentanacyclododecaphan-11-one]",> 1250,10 to 50,50 to 100,"E (E, <20)",> 500,"B (B, >100 and ≤500)",≤ 10,10 to 50,> 500,"B (B, >100 and ≤500)",> 500,"B (B, >100 and ≤500)",–
"O=C1NCCCCCc2cc(cc(C(F)F)n2)Nc2cc([nH]n2)[C@H]2CC[C@H](C2)O1 [Compound 17, (1^1S,1^3R,Z)-4^6-(difluoromethyl)-2^1H-12-oxa-3,10-diaza-4(4,2)-pyridina-2(3,5)-pyrazola-1(1,3)-cyclopentanacyclododecaphan-11-one]",250 to 1250,2 to 10,≤ 10,"E (E, <20)",50 to 100,"C (C, >50 and ≤100)",≤ 10,2 to 10,100 to 500,"B (B, >100 and ≤500)",50 to 100,"B (B, >100 and ≤500)",–
"O=C1NC23CC(COc4cc(cc(C(F)F)n4)Nc4cc([nH]n4)[C@H]4CC[C@H](C4)O1)(C2)C3 [Compound 19, (1^1S,1^3R,Z)-46-(difluoromethyl)-2^1H-5,10-dioxa-3,8-diaza-4(4,2)-pyridina-2(3,5)-pyrazola-7(1,3)-bicyclo[1.1.1]pentana-1(1,3)-cyclopentanacyclodecaphan-9-one]",> 1250,2 to 10,–,–,–,–,–,10 to 50,–,–,–,–,"IC50 ([3]; Table 11): 50 to 100 nM; CDK2 Fold selectivity, CDK1 ([3]; Table 12): D (D, >20 and ≤50); IC50 ([4]; Table 11): > 500 nM; CDK2 Fold selectivity, CDK9 ([4]; Table 12): A (A, ≥500); IC50 ([5]; Table 11): ≤ 10 nM; IC50 ([7]; Table 11): > 500 nM; CDK2 Fold selectivity, CDK4 ([7]; Table 12): A (A, ≥500); IC50 ([8]; Table 11): > 500 nM; CDK2 Fold selectivity, CDK6 ([8]; Table 12): B (B, >100 and ≤500)"
"O=C1NCCCCC(F)(F)c2cc(ccn2)Nc2cc([nH]n2)[C@H]2CC[C@H](C2)O1 [Compound 64, (1^1S,1^3R,Z)-5,5-difluoro-2^1H-12-oxa-3,10-diaza-4(4,2)-pyridina-2(3,5)-pyrazola-1(1,3)-cyclopentanacyclododecaphan-11-one]",50 to 250,≤ 2,–,–,–,–,–,2 to 10,–,–,–,–,"IC50 ([3]; Table 19): ≤ 10 nM; CDK2 Fold selectivity, CDK1 ([3]; Table 20): E (E, <20); IC50 ([4]; Table 19): 10 to 50 nM; CDK2 Fold selectivity, CDK9 ([4]; Table 20): E (E, <20); IC50 ([5]; Table 19): ≤ 10 nM; IC50 ([7]; Table 19): 10 to 50 nM; CDK2 Fold selectivity, CDK4 ([7]; Table 20): D (D, >20 and ≤50); IC50 ([8]; Table 19): 10 to 50 nM; CDK2 Fold selectivity, CDK6 ([8]; Table 20): D (D, >20 and ≤50)"
